Key:
Assay type in all cases: cell-based, mice
naïve T cells = assay: Transwell migration assay, naïve T cells; conditions: cells pre-treated 30 min with CCL2 0.1 ng/ml, 3 hours migration
Experimental: (§1) Stimulation of T cells—Cell stimulation was performed as previously described [Flaishon et al., J Biol Chem. (2001) 276:46701-46706]. Briefly, 1×10^7 T cells were suspended in 1 ml DMEM cell medium containing 10% (v/v) Fetal Calf Serum (FCS). Next, 0.1 ng/ml CCL2 (CytoLab) was added to each tube and the tubes were immediately placed in 37° C. for 30 minutes. Immediately after stimulation, cells were washed and handled as described hereinbelow.
Transwell migration assay—Chemotaxis was assayed using Transwell chambers as was previously described [Flaishon, L. F., et al., J. Biol. Chem. 276:46701 (2001)]. Naive T cells were suspended for 30 minutes with RPMI medium with or without CCL2 (0.1 ng/ml, Peprotech Inc., Rocky Hill, N.J.), and thereafter placed in the upper chamber of a 24 well Transwell plate, and allowed to migrate towards CXCL12 (SDF-1, 0.1 mg/ml PeproTech, Inc., Rocky Hill, N.J.) or to the secondary lymphoid tissue chemokine (SLC, CCL21, 0.4 mg/ml; PeproTech, Inc., Rocky Hill, N.J.), placed in the lower chamber. Following 3 hours, the number of the migrating cells found in the lower chamber was evaluated by FACS (FACS calibur, BD bioscience). Assay was repeated 3 times and results were analyzed as percent migration, being the number of migrating cells in the lower chamber as a fraction of the input cells in the upper chamber.

ERK½ = assay: ERK detection (phospho-ERK western blot) in naïve T cells; conditions: naïve T cells pre-treated with CCL2 30 minutes, CCL21 for 30 or 60 seconds; FIG. 3
Experimental: as §1
Preparation of cell extract—Stimulated cells were lysed in lysis buffer containing: 25 mM Tris, pH 7.4; 2 mM Vanadate; 75 mM glycophosphate, pH 7.2; 2 mM EDTA; 2 mM EGTA; 10 mM NaPPi; and 0.5% NP-40, in the presence of the following protease inhibitors: 10 mg/ml Leupeptin; 10 mg/ml aprotinin; 10 mg/ml pepstatin; 10 mg/ml chymostatin (Roche); 1 mM PMSF (Sigma); and 20 mM N-etheyl-melamide (Sigma).
ERK detection—Cell lysates were separated on a 10% (wt/vol) SDS-PAGE. Proteins were electro-transferred to nitrocellulose membranes and reacted with anti-phospho-specific extracellular signal-regulated kinase (ERK) 1 or 2 (a kind gift from Dr Rony Seger, Weizmann Institute, Rehovot, Israel) followed by peroxidase-labeled goat anti-mouse (Jackson Labs), or reacted with polyclonal anti-Tubulin (Santa Cruz) followed by peroxidase anti-rabbit (Jackson Labs).

[1] = test system: effector (Th1, Th2) T cells; assay: Cytoskeleton rearrangement (actin polymerization), effector T cells; conditions: CCL2 0.1 ng/ml
Experimental: T cell sorting—Spleen and […] were obtained from mice as previously described [Shachar I. and Flavell R. A., Science 274:106 (1996)]. T cells were enriched using the MACS system (Miltenyi Biotec, Auburn, Calif.) according to the manufacturer's protocol. Spleen cells were incubated with anti-CD45R (B220) magnetic beads (Miltenyi Biotec, Auburn, Calif.) and the CD45 negative cells were collected. CD4+ T cells were enriched using anti-CD4 magnetic beads (Miltenyi Biotec, Auburn, Calif.). […]
Cytoskeleton rearrangement—T cells were pre-incubated for 30 minutes in the presence or absence of CCL2 (0.1 ng/ml), and then stimulated with either CXCL12 (0.1 mg/ml PeproTech, Inc., Rocky Hill N.J.) or SLC (CCL21, 0.4 mg/ml, PeproTech, Inc., Rocky Hill, N.J.), for 15 seconds. Cells were then immediately fixed with paraformaldehyde, permeabilized and their intracellular F-actin was stained with FITC-phalloidin (Sigma-Aldrich, St. Louis, Mo.), and then analyzed by flow cytometry to determine the state of their cytoskeleton, as previously described [Flaishon, L. F., et al., J. Biol. Chem. 276:46701 (2001)].

Substance: CCL2: mammalian (e.g., human) CCL2 protein, GenBank NM_002982 / NP_002973; murine CCL2 used in the asthma model
- inhibition of migration of naïve T cells towards CXCL12 (naïve T cells; FIG. 2a): 40-50%
- inhibition of migration of naïve T cells towards CCL21 (naïve T cells; FIG. 2b): 40-50%
- CCL21-induced phosphorylation of ERK½ (ERK½): inhibited
- CCL21 induced cytoskeleton rearrangement of effector cells ([1]; CCL21 0.4 mg/ml 15 seconds): down-regulated
- CXCL12 induced cytoskeleton rearrangement of effector cells ([1]; CXCL12 15 seconds): down-regulated
